According to paper PMC7985203, “LLL12B, a small molecule STAT3 inhibitor, induces growth arrest, apoptosis, and enhances cisplatin-mediated cytotoxicity in medulloblastoma cells” (Scientific Reports, 2021):
Read-outs that look alike come from different tables or passages of the source.

Legend:
[1] = system: D425 medulloblastoma cells; assay: Tumorsphere formation, D425; format: cell-based, human; settings: LLL12B 0.5 and 1 μM and/or cisplatin 0.5 and 1 μM, 8 days
Protocol: (§1) Cells were seeded (10,000 cells/mL) in ultra-low attachment 6-wells plates and treated with different concentrations of LLL12B and/or cisplatin or DMSO alone for 8 days. One-half of the culture volume of fresh 3D Tumorsphere Medium XF was added every 4 days. Images were captured on a Nikon Eclipse TS100 microscope. Original magnification, × 10.

[2] = system: D283 medulloblastoma cells; assay: Tumorsphere formation, D283; format: cell-based, human; settings: LLL12B 0.5 and 1 μM and/or cisplatin 0.5 and 1 μM, 8 days
Protocol: as §1

[3] = system: Cyclin D1 and Survivin; assay: Western blot of STAT3 downstream targets in medulloblastoma cells; format: cell-based, human; settings: D283, D425, UW426, UW288 cells; 0.5 to 2.5 μM, 16 h
Excerpt: (§2) Cells was harvested and extracted using cell lysis buffer (Cell Signaling) supplemented with phosphatase and protease inhibitors. Tumors from mice were grinded in the liquid nitrogen, and extracted proteins using cell lysis buffer supplemented with phosphatase and protease inhibitors. Extracted protein samples were separated by 10% SDS-PAGE and transferred to polyvinylidene difluoride membranes. After blocking with TBS-T buffer containing 5% skim milk (Lab Scientific Inc) at room temperature for 1 h, each membrane was incubated at 4 °C overnight with one of the following primary antibodies at 1:1,000 dilution: rabbit anti-phosphorylated STAT3 (Y705), rabbit anti-STAT3, rabbit anti-phosphorylated STAT1 (Y701), rabbit anti-STAT1, rabbit anti-Cyclin D1, rabbit anti-Survivin, and rabbit anti-GAPDH. Subsequently, each membrane was washed with TBS-T and incubated with horseradish peroxidase-conjugated secondary antibody (1:10,000) at room temperature for 1.5 h. Proteins of interest were visualized using SUPERSIGNAL West Femto Maximum Sensitivity Substrate (Thermo, #34096). Quantification was performed using ImageJ.

[4] = system: D283 medulloblastoma xenografts; assay: D283 tumor xenograft model in nude mice; format: in vivo; settings: for STAT3 phosphorylation in tumors: Western blot, LLL12B 2.5 mg/kg and/or cisplatin 5 mg/kg
Protocol: (§3) All animal studies were carried out in accordance with the standard procedures approved by the Institutional Animal Care and Use Committee (IACUC) of University of Maryland School of Medicine and University of Florida respectively. Furthermore, our animal studies were performed in compliance with the ARRIVE guidelines. Cells (1 × 10^7 cells/sites) were suspended in PBS mixed with matrigel (1:1, Corning, # 354234) and injected subcutaneously into the flank region of 4 to 5 week-old female athymic nude mice (Envigo). When the volume of the tumors reached approximately 100 mm^3, mice were randomized into four groups: (1) LLL12B (2.5 mg/kg) treated orally once daily only, (2) cisplatin (5 mg/kg) intraperitoneal injection treated once every four days only, (3) combination of LLL12B (2.5 mg/kg) oral once daily and cisplatin (5 mg/kg) intraperitoneal injection once every four days and (4) vehicle only once daily. Tumor growth was determined by measuring the minor (W) and major (L) diameter once every other day with a caliper, and calculated according to the following equation: tumor volume = 0.5236 × L × W^2. Body weight and clinical signs were monitored once every other day. In vivo PK studies in mice were performed by Dr. Chenglong Li’s laboratory at the University of Florida.
Figure 6 LLL12B suppressed tumor growth in medulloblastoma xenografts. (A) Tumor volume, (B) Tumor weights. (C) Tumor samples. (D) Body weights. (E) Western blot of tumor samples. The protein expression levels of P-STAT3(Y705), STAT3, and GAPDH. D283 cells (1 × 10^7 cells/tumor) were harvested and suspended in PBS and then implanted subcutaneously with matrigel (1:1 ratio) into the flank region of 4 to 5 week-old female athymic nude mice. Mice were randomized into three groups (6 mice for each group) and treated with LLL12B (2.5 mg/kg or 5 mg/kg, oral gavage, once daily).
Figure 9 LLL12B and cisplatin combination suppressed tumor growth in D283 medulloblastoma xenografts. (A) Tumor volumes. (B) Tumor weights. (C) Body weight. (D) Western blots to analyze protein expression in the representative tumor samples. Expression levels of p-STAT3(Y705), STAT3, CyclinD1, Survivin, and GAPDH. D283 medulloblastoma cells (1 × 10^7 cells/tumor) were implanted subcutaneously into the flank region of 4 to 5 week-old female athymic nude mice. Mice were randomized into four groups (5 mice for each group) and treated with LLL12B (2.5 mg/kg, oral gavage, once daily) and/or cisplatin (5 mg/kg, intraperitoneal injection, once every 4 days) or vehicle alone.

[5] = In vivo pharmacokinetics (PK) in mice dosed PO
[6] = system: D425 medulloblastoma cells; assay: MTT cell viability assay, D425; format: cell-based, human; settings: 0.5 μM, 48 h, siRNA transfection experiment
Protocol: SignalSilence STAT3 siRNA I was purchased from Cell Signaling (#6580) and medulloblastoma cells were transfected using Lipofectamine 2000 reagent (Invitrogen). The sequence of STAT3 siRNA: GGUCCCUCAUCCUGUUUGU, ACAAACAGGAUGAGGGACC. AMBION SILENCER Negative Control siRNA (#AM4611) was purchased from Invitrogen. Cells were seeded in 96-well plates (8,000 cells/well) and allowed to adhere overnight. siRNA and Lipofectamine 2000 were diluted at 1:50 in Opti-MEM medium respectively. Gently mixed and incubated at room temperature for 5 min, and then the diluted siRNA was added to the diluted Lipofectamine 2000 reagent (1:1 ratio) with an additional incubation of 25 min. The final concentration of siRNA was 100 nM. After that, culture medium was replaced by Lipofectamine 2000 reagent: siRNA complexes and cultured for 24 h. After transfection, cells were treated with LLL12B or DMSO only for 48 h, and then cell viability was measured by MTT assay.
Cells were seeded in 96-well plates at a density of 3,000 cells. After overnight attachment, cells were treated with different concentrations of LLL12B and/or cisplatin or DMSO alone. After 72 h treatment, 20 μL of MTT solution was added for 4 h of additional culture, and then 150 μL of DMF solubilization solution was added with shaking overnight in the dark. Absorbance was measured at 595 nm. Combination index (CI) was calculated using ComuSyn software. […]

[7] = system: P-ERK; assay: Western blot of P-ERK in medulloblastoma cells; format: cell-based, human; settings: 0.5 to 2.5 μM, 4 or 8 h
[8] = system: D425 medulloblastoma cells; assay: Pilot orthotopic tumor model in vivo; parameters: species or system mice
[9] = system: P-AKT; assay: Western blot of P-AKT in medulloblastoma cells; format: cell-based, human; settings: 4 or 8 h
[10] = system: STAT3 phosphorylation (Y705); assay: Western blot of STAT3 phosphorylation in medulloblastoma cells; format: cell-based, human
Excerpt: as §2

[11] = system: IL-6 induced phosphorylation of STAT3; assay: IL-6 stimulated P-STAT3 in DaoY cells (Western blot); format: cell-based, human; settings: 1 and 2.5 μM for 4 h, then IL-6 50 ng/mL 30 min
Excerpt: as §2
(§4) To verify the selective toxicity of LLL12B, DaoY human medulloblastoma cell line was used and treated with LLL12B (1 and 2.5 μM) or DMSO for 4 h followed by induction of IL-6 or INF-γ (50 ng/mL) for 30 min. […]

[12] = system: D425 medulloblastoma xenografts; assay: D425 tumor xenograft model in nude mice; format: in vivo; settings: for STAT3 phosphorylation in tumors: Western blot, LLL12B 2.5 mg/kg and/or cisplatin 5 mg/kg
Protocol: as §3
Figure 10 Anti-neoplastic activity of LLL12B and cisplatin combined treatment of D425 medulloblastoma xenografts. (A) Tumor volumes. (B) Tumor weights. (C) Body weights. (D) Protein analysis of the representative tumor samples by western blots. Expression levels of p-STAT3 (Y705), STAT3, CyclinD1, Survivin, and GAPDH. D245 medulloblastoma cells (1 × 10^7 cells/tumor) were implanted subcutaneously into the flank region of 4 to 5 week-old female athymic nude mice. Mice were randomized into four groups (5 mice for each group) and treated with LLL12B (2.5 mg/kg, oral gavage, once daily) and/or cisplatin (5 mg/kg, intraperitoneal injection, once every 4 days) or vehicle alone.

[13] = system: INF-γ stimulated STAT1 phosphorylation; assay: INF-γ induced P-STAT1 in DaoY cells (Western blot); format: cell-based, human; settings: 1 and 2.5 μM for 4 h, then INF-γ 50 ng/mL 30 min
Excerpt: as §2, §4

[14] = system: active caspase-3/7; assay: Apoptosis assay (Caspase-3/7 Fluorescence Assay Kit); format: cell-based, human; settings: D425, D283, UW426 cells; LLL12B 1 μM, cisplatin 2.5 μM, 5 h
Protocol: Cells were plated in 96-well plates (8000–12,000 cells/well) and allowed to adhere overnight. Cells were treated with LLL12B or DMSO only. After 5 h treatment, active caspase-3/7 were measured using Caspase-3/7 Fluorescence Assay Kit (Cayman, Ann Arbor, MI) according to the manufacture’s instruction. Briefly, cells were centrifuged in the plate (800 g, 5 min) and the culture medium was aspirated, and then 200 µL of assay buffer was added to each well to wash the cells and the supernatant was removed after centrifuge. After that, 100 µL of cell-based assay lysis buffer was added to each well with shaking for 30 min at room temperature. Subsequently, 90 µL of the supernatant from each well was transferred to a corresponding well in a new black 96-well plate and 10 µL of assay buffer was added to appropriate wells. The plate was incubated at 37 °C for 90 min followed by addition of 100 µL of the caspase-3/7 substrate solution. Finally, the fluorescence intensity of each well was read at excitation 485 nm and emission 535 nm. All treatments were performed in triplicate.

[15] = system: STAT3 protein; parameters: method as in PMID 32412740; settings: intact MCF-7 breast cancer cells; cited from earlier work
[16] = LLL12B 2.5 mg/kg oral daily and/or cisplatin 5 mg/kg ip every 4 days

With CN(C)C(=O)Oc1cccc2c1C(=O)c1cccc(S(N)(=O)=O)c1C2=O [LLL12B] the tumorsphere formation [1] was “numbers and sizes of tumorspheres decreased”, the tumorsphere formation [2] was “numbers and sizes of tumorspheres decreased” and the “expression of Cyclin D1 and Survivin” value [3] was “downregulated”. The “suppression of tumor growth and tumor weights vs vehicle” value ([4]; 2.5 mg/kg oral gavage once daily) was ~ 40%, the “suppression of tumor growth and tumor weights vs vehicle” value ([4]; 5 mg/kg oral gavage once daily) was ~ 75% and the “body weight of mice” value ([4]; 2.5 or 5 mg/kg oral gavage once daily) was “no significant impact”. For the same compound, the “P-STAT3(Y705) level in tumors” value ([4]; 2.5 or 5 mg/kg oral, Western blot vs vehicle) was “dose-dependently down-regulated”, the body weights [4, 16] was “little effect” and the “STAT3 phosphorylation in tumors” value [4] was “reduced”. The “Cmax compared to LLL12” value ([5]; LLL12B 8 mg/kg vs LLL12 20 mg/kg) was “more than doubled”, the AUC ([5]; mouse, in vivo, 8 mg/kg) was 1.36 µM·h and the Cmax ([5]; mouse, in vivo, 8 mg/kg) was 278 nM. For the same compound, the bioavailability ([5]; mouse, in vivo, 8 mg/kg, read-out: Bioavailability (F)) was 47.7%, the Tmax ([5]; mouse, in vivo, po, 8 mg/kg, one time 8 mg/kg, read-out: oral Tmax) was about 8 h and the Tmax ([5]; mouse, in vivo, po, 8 mg/kg, read-out: Tmax) was 7.68 h. The cell viability [6] was “could impede cell viability”, the P-ERK ([7]; D283 cells) was “did not generally inhibit” and the P-ERK ([7]; UW288 cells) was “some inhibition”. The P-ERK ([7]; UW426 cells) was “induced”, the “survival of mice with tumors” value [8] was “limited extension of the survival” and the P-AKT ([9]; D283 cells, 0.5 to 2.5 μM) was “induced”. For the same compound, the P-AKT ([9]; UW288 cells, 0.5 to 2.5 μM) was “some inhibition”, the P-AKT ([9]; UW426 cells, 2.5 μM) was “bound back” and the P-AKT ([9]; UW426 cells, 0.5 and 1.0 μM) was “reduced”. For the same compound, the “STAT3 phosphorylation (Y705)” value ([10]; D283, D425, UW426, UW288 cells, 0.5 to 2.5 μM, 16 h) was “dose-dependently suppressed”, the P-STAT3 levels ([10]; UW426, UW288, D283 cells, 0.5, 1.0, 2.5 μM, 4 and 8 h) was “significantly reduced” and the “IL-6 induced phosphorylation of STAT3” value [11] was “significantly inhibited”. For the same compound, the body weights [12, 16] was “little effect”, the “STAT3 phosphorylation in tumors” value [12] was “reduced” and the “induction of phosphorylated STAT1 protein by INF-γ” value [13] was “without affecting”. The “caspase-3/7 activation (apoptosis)” value [14] was “increased”.

In the case of NS(=O)(=O)c1cccc2c1C(=O)c1cccc(O)c1C2=O [LLL12], the “binding to STAT3 protein in intact cells” value [15] is listed as “binds to STAT3 protein”, the AUCall ([5]; 20 mg/kg) is listed as 0.0407 µM·h and the “Bioavailability (F)” value ([5]; 20 mg/kg) is listed as 2.73%. The Cmax ([5]; 20 mg/kg) was 176 nM, the Tmax ([5]; 20 mg/kg) was 0.083 h and the “oral Tmax” value ([5]; one time 20 mg/kg) was 5 min. For the same compound, the “survival (average)” value ([8]; vehicle 19 days) was 24 days.

In the case of N.N.[Cl][Pt][Cl] [cisplatin], the “STAT3 phosphorylation in tumors” value [4] is reported as “reduce or partially reduce”, the “STAT3 phosphorylation in tumors” value [12] is reported as “reduce or partially reduce” and the “caspase-3/7 activation (apoptosis)” value [14] is reported as “increased”.
